Data as given in ChEMBL document CHEMBL5724914, “Linking interpersonal differences in gut microbiota composition and drug biotransformation activity” (2024).

Experiments:
[1] = (§1) The drug is tested on Z-026 corresponding to metagenome with ENA study accession number: PRJEB37062 and ENA sample accession number: ERS12561825 for biotransformation under anaerobic condition. The drug concentrations were measured over 9 timepoints collected between 0 and 24 hours of incubation by liquid-chromatography-coupled mass spectrometry (LC–MS); conditions: 2 µM
[2] = (§2) The drug is tested on Z-025 corresponding to rabbit gut metagenome with ENA study accession number: PRJEB37062 and ENA sample accession number: ERS12561824 for biotransformation under anaerobic condition. The drug concentrations were measured over 9 timepoints collected between 0 and 24 hours of incubation by liquid-chromatography-coupled mass spectrometry (LC–MS); conditions: 2 µM
[3] = as §2, with “Z-022” for “Z-025”, “mouse” for “rabbit”, “ERS12561821” for “ERS12561824”; conditions: 2 µM
[4] = as §1, with “Z-021” for “Z-026”, “ERS12561820” for “ERS12561825”; conditions: 2 µM
[5] = as §2, with “Z-020” for “Z-025”, “ERS12561819” for “ERS12561824”; conditions: 2 µM
[6] = as §2, with “Z-014” for “Z-025”, “rat” for “rabbit”, “ERS12561814” for “ERS12561824”; conditions: 2 µM
[7] = as §1, with “Z-004” for “Z-026”, “ERS12561804” for “ERS12561825”; conditions: 2 µM
[8] = as §2, with “Z-001” for “Z-025”, “mouse” for “rabbit”, “ERS12561801” for “ERS12561824”; conditions: 2 µM
[9] = as §2, with “WLS-170” for “Z-025”, “human” for “rabbit”, “ERS12561762” for “ERS12561824”; conditions: 2 µM
[10] = as §2, with “WLS-027” for “Z-025”, “human” for “rabbit”, “ERS12561744” for “ERS12561824”; conditions: 2 µM
[11] = as §2, with “WLS-007” for “Z-025”, “human” for “rabbit”, “ERS12561742” for “ERS12561824”; conditions: 2 µM
[12] = human gut metagenome, 24 h, 2 µM
[13] = human gut metagenome, 24 h, 2 µM; remark: listed apart in the source
[14] = human gut metagenome, 24 h, 2 µM; remark: listed apart in the source
[15] = human gut metagenome, 24 h, 2 µM; remark: listed apart in the source
[16] = human gut metagenome, 24 h, 2 µM; remark: listed apart in the source
[17] = human gut metagenome, 24 h, 2 µM; remark: listed apart in the source
[18] = human gut metagenome, 24 h, 2 µM; remark: listed apart in the source
[19] = human gut metagenome, 24 h, 2 µM; remark: listed apart in the source
[20] = human gut metagenome, 24 h, 2 µM; remark: listed apart in the source
Also: call rule not given here.

| Compound | Bacterial Biotransformation [1] | Bacterial Biotransformation [2] | Bacterial Biotransformation [3] | Bacterial Biotransformation [4] | Bacterial Biotransformation [5] | Bacterial Biotransformation [6] | Bacterial Biotransformation [7] | Bacterial Biotransformation [8] | Bacterial Biotransformation [9] | Bacterial Biotransformation [10] | Bacterial Biotransformation [11] | Bacterial Biotransformation [12] | Bacterial Biotransformation [13] | Bacterial Biotransformation [14] | Bacterial Biotransformation [15] | Bacterial Biotransformation [16] | Bacterial Biotransformation [17] | Bacterial Biotransformation [18] | Bacterial Biotransformation [19] | Bacterial Biotransformation [20] |
| --- | --- | --- | --- | --- | --- | --- | --- | --- | --- | --- | --- | --- | --- | --- | --- | --- | --- | --- | --- | --- |
| CC(=O)OCC(=O)[C@@]12N=C(C)O[C@@H]1C[C@H]1[C@@H]3CCC4=CC(=O)C=C[C@]4(C)[C@H]3[C@@H](O)C[C@@]12C [DEFLAZACORT] | Compound metabolized | Compound metabolized | Compound metabolized | Compound metabolized | Compound metabolized | Compound metabolized | Compound metabolized | Compound metabolized | Compound metabolized | Compound metabolized | Compound metabolized | Compound metabolized | Compound metabolized | Compound metabolized | Compound metabolized | Compound metabolized | Compound metabolized | Compound metabolized | Compound metabolized | Compound metabolized |
| CN(C)CC(c1ccc(O)cc1)C1(O)CCCCC1.O=C(O)CCC(=O)O (stereo not given) [DESVENLAFAXINE SUCCINATE] | Compound NOT metabolized | Compound NOT metabolized | Compound NOT metabolized | Compound NOT metabolized | Compound NOT metabolized | Compound NOT metabolized | Compound NOT metabolized | Compound NOT metabolized | Compound NOT metabolized | Compound NOT metabolized | Compound NOT metabolized | Compound NOT metabolized | Compound NOT metabolized | Compound NOT metabolized | Compound NOT metabolized | Compound NOT metabolized | Compound NOT metabolized | Compound NOT metabolized | Compound NOT metabolized | Compound NOT metabolized |
| CN1CCN(C(=O)O[C@H]2c3nccnc3C(=O)N2c2ccc(Cl)cn2)CC1 [ESZOPICLONE] | Compound NOT metabolized | Compound NOT metabolized | Compound NOT metabolized | Compound NOT metabolized | Compound NOT metabolized | Compound NOT metabolized | Compound NOT metabolized | Compound NOT metabolized | Compound NOT metabolized | Compound NOT metabolized | Compound NOT metabolized | Compound NOT metabolized | Compound NOT metabolized | Compound NOT metabolized | Compound NOT metabolized | Compound NOT metabolized | Compound NOT metabolized | Compound NOT metabolized | Compound NOT metabolized | Compound NOT metabolized |
| O=C1NCC2(CCN(CCc3ccccc3)CC2)O1 [FENSPIRIDE] | Compound NOT metabolized | Compound NOT metabolized | Compound metabolized | Compound NOT metabolized | Compound NOT metabolized | Compound NOT metabolized | Compound NOT metabolized | Compound metabolized | Compound NOT metabolized | Compound NOT metabolized | Compound NOT metabolized | Compound NOT metabolized | Compound NOT metabolized | Compound NOT metabolized | Compound metabolized | Compound NOT metabolized | Compound NOT metabolized | Compound NOT metabolized | Compound NOT metabolized | Compound NOT metabolized |
